In patent US5883287A, “Vinyl sulfide compounds and a process for their preparation” (Lumigen, Inc., priority 1997, dated 1999):

Legend:
Format in all cases: physicochemical
[1] = Stability of dioxetane on silica (TLC versus NMR); conditions: TLC on silica compared with 1H NMR
Experimental: (c) Synthesis of 4-ethylthio-4-(3-pivaloyloxyphenyl)spiro[1,2-dioxetane-3,2'-tricyclo[3.3.1.1^3,7 ]decane] (2). A small photooxygenation apparatus was charged with 60 mg (0.16 mmol) of the vinyl sulfide, 180 mg of polymer-bound Rose Bengal (U.S. Pat. No. 4,315,998), and 20 mL of CH2 Cl2 dried over MgSO4. The resulting mixture was then cooled to -78° C. with oxygen bubbling through it. After several minutes, the reaction solution was irradiated with a 1000 W sodium lamp for 25 min. […] The sensitizer was filtered off, the solvent evaporated at 0° C. and the material examined by ^1 H NMR.

[2] = First order decay of chemiluminescence (base-induced decay) of hydroxyphenyl alkylthio dioxetane in alkaline buffer with surfactant enhancers; conditions: 0.2M 221 buffer pH 9.6, 0.88 mM Mg+2, ambient temperature
Experimental: Comparison of Rates of Base-Induced Decay of a Hydroxyphenyl Alkylthio Dioxetane. The first order decay of chemiluminescence of dioxetane 3 in 0.2M 221 buffer, pH 9.6 containing 0.88 mM Mg^+2 and the surfactant enhancers shown below was measured at ambient temperature. Surfactant A is CTAB, B is poly(vinylbenzyltributylphosphonium chloride), C is poly(vinylbenzyltributylphosphonium chloride)-co-poly(vinylbenzyltrioctylphosphonium chloride), D is 1-trioctylphosphoniummethyl-4-tributylphosphoniummethylbenzene dichloride.

[3] = First order decay of chemiluminescence (base-induced decay) of hydroxyphenyl alkoxy or aryloxy dioxetanes in alkaline buffer; conditions: 37° C.; 0.2M 221 buffer, pH 9.6, 0.88 mM Mg+2, 1.0 mg/mL 1-trioctylphosphoniummethyl-4-tributylphosphoniummethylbenzene dichloride
Experimental: Comparison of Rates of Base-Induced Decay of Hydroxy-phenyl Alkoxy or Aryloxy Dioxetanes. The first order decay of chemiluminescence of dioxetanes 14-19 in 0.2M 2-methyl-2-amino-1-propanol (221) buffer, pH 9.6 containing 0.88 mM Mg^+2 and 1.0 mg/mL of 1-trioctylphosphoniummethyl-4-tributylphosphoniummethylbenzene dichloride was measured at 37° C. in a Turner Designs (Sunnyvale, Calif.) model TD-20e luminometer. The half-lives of decay of chemiluminescence (t1/2) of hydroxy-dioxetanes correlate with the times required to reach the maximum light intensity (Imax) in the alkaline phosphatase-triggered decomposition of the corresponding phosphate-dioxetanes under the same conditions. […] It is expected that, for example, the phosphate derivatives of dioxetanes 14-19 as well as others which can be produced by the process described herein will be useful in alkaline phosphatase-linkedassays known in the art.

SMILES	t1/2 of decay of chemiluminescence [3] [min]	further results
CCSC1(c2cccc(OC(=O)C(C)(C)C)c2)OOC12C1CC3CC(C1)CC2C3 (stereo not shown) [Dioxetane 2, 4-Ethylthio-4-(3-pivaloyloxyphenyl)spiro[1,2-dioxetane-3,2'-tricyclo-[3.3.1.1^3,7]decane]]	–	stability on silica [1]: less stable on silica
Oc1cccc(C2(Sc3ccc(F)cc3)OOC23C2CC4CC(C2)CC3C4)c1 (stereo not shown) [Dioxetane 3, 4-(p-Fluorophenylthio)-4-(3-hydroxyphenyl)spiro[1,2-dioxetane-3,2'-tricyclo[3.3.1.1^3,7]decane]]	–	t1/2 of decay of chemiluminescence ([2]; Surfactant A (CTAB) 0.41 g/L): 11.2 min; t1/2 of decay of chemiluminescence ([2]; Surfactant B (poly(vinylbenzyltributylphosphonium chloride)) 0.5 g/L): 4.2 min; t1/2 of decay of chemiluminescence ([2]; Surfactant C (poly(vinylbenzyltributylphosphonium chloride)-co-poly(vinylbenzyltrioctylphosphonium chloride)) 0.5 g/L): 2.9 min; t1/2 of decay of chemiluminescence ([2]; Surfactant D (1-trioctylphosphoniummethyl-4-tributylphosphoniummethylbenzene dichloride) 1.0 g/L): 2.0 min
Oc1cccc(C2(OCC(Cl)(Cl)Cl)OOC23C2CC4CC(C2)CC3C4)c1 (stereo not shown) [Dioxetane 15, 4-(3-Hydroxyphenyl)-4-(2,2,2-trichloroethoxy)spiro[1,2-dibxetane-3,2'-tricyclo[3.3.1.1^3,7]decane]]	3.7	–
Oc1cccc(C2(OCC(Cl)Cl)OOC23C2CC4CC(C2)CC3C4)c1 (stereo not shown) [Dioxetane 16, 4-(2,2-Dichloroethoxy)-4-(3-hydroxyphenyl)spiro[1,2-dioxetane-3,2'-tricyclo-[3.3.1.1^3,7]decane]]	4.1	–
Oc1cccc(C2(OCC(F)(F)C(F)(F)F)OOC23C2CC4CC(C2)CC3C4)c1 (stereo not shown) [Dioxetane 17, 4-(3-Hydroxyphenyl)-4-(2,2,3,3,3-pentafluoropropoxy)spiro[1,2-dioxetane-3,2'-tricyclo[3.3.1.1^3,7]decane]]	3.4	–
Oc1cccc(C2(OCC(F)(F)C(F)(F)C(F)(F)F)OOC23C2CC4CC(C2)CC3C4)c1 (stereo not shown) [Dioxetane 18, 4-(2,2,3,3,4,4,4-Heptafluorobutoxy)-4-(3-hydroxyphenyl)spiro[1,2-dioxetane-3,2'-tricyclo[3.3.1.1^3,7]decane]]	4.9	–
Oc1cccc(C2(Oc3c(F)cccc3F)OOC23C2CC4CC(C2)CC3C4)c1 (stereo not shown) [Dioxetane 19, 4-(2',6'-Difluorophenoxy)-4-(3-hydroxyphenyl)spiro[1,2-dioxetane-3,2'-tricyclo[3.3.1.1^3,7]decane]]	1.76	–
